Patent publication US5348975A, “7-chromanyl esters of phenols and benzoic acids having retinoid-like activity” (Allergan, Inc., priority 1993, dated 1994)

How the values were obtained:
[1] = tested on: ornithine decarboxylase (ODC); assay: inhibition of TPA-induced ornithine decarboxylase (ODC) activity (retinoic acid-like activity; essentially method of Verma & Boutwell); assay type: in vivo
From the text: The retionic acid like activity of these compounds was confirmed through the classic measure of retionic acid activity involving the effects of retionic acid on ornithine decarboxylase. The original work on the correlation between retinoic acid and decrease in cell proliferation was done by Verma & Boutwell, Cancer Research, 1977, 37, 2196-2201. That reference discloses that ornithine decarboxylase (ODC) activity increased precedent to polyamine biosynthesis. It has been established elsewhere that increases in polyamine synthesis can be correlated or associated with cellular proliferation. Thus, if ODC activity could be inhibited, cell hyperproliferation could be modulated.
By way of example of retinoic acid-like activity it is noted that in the assay conducted essentially in accordance with the method of Verma & Boutwell, ibid, the following examples of the preferred compounds of the present invention (Compounds 1, 2 and 3) elicited the following percent inhibition of TPA-induced ODC activity at the given calculations: […]

[2] = tested on: ornithine decarboxylase (ODC); conditions: literature background, cited from earlier work

Structure (SMILES): CC1(C)CC(C)(C)c2ccc(C(=O)Oc3ccc(C(=O)O)cc3)cc2O1 [Compound 3, 4-(2,2,4,4-tetramethyl-7-chromanoyloxy) benzoic acid]
- % inhibition of TPA-induced ODC activity ([1]; Dose 30 nmol): 86%

Structure (SMILES): CCOC(=O)c1ccc(OC(=O)c2ccc3c(c2)OC(C)(C)CC3(C)C)cc1 [Compound 1, Ethyl 4-(2,2,4,4-tetramethyl-7-chromanoyloxy) benzoate]
- % inhibition of TPA-induced ODC activity ([1]; Dose 30 nmol): 100%

Structure (SMILES): CCCCCCCCCCCCCC(=O)O[C@@H]1[C@@H](C)[C@@]2(O)[C@@H](C=C(CO)C[C@]3(O)C(=O)C(C)=C[C@@H]23)[C@@H]2C(C)(C)[C@]12OC(C)=O [TPA, 12-0-tetradecanoyl-phorbol-13-acetate]
- induction of ODC activity (in words) ([2]; TPA): induces ODC activity

Structure (SMILES): CC1(C)CC(C)(C)c2ccc(C(=O)Oc3ccc(C(=O)OCc4ccccc4)cc3)cc2O1 [Compound 2, Benzyl 4-(2,2,4,4,tetramethyl-7-chromanoyloxy)benzoate]
- % inhibition of TPA-induced ODC activity ([1]; Dose 300 nmol): 84%

Structure (SMILES): CC1=C(/C=C/C(C)=C/C=C/C(C)=C/C(=O)O)C(C)(C)CCC1 [Retinoic acid]
- inhibition of TPA induction of ODC activity (in words) ([2]; retinoic acid): inhibits this induction of ODC activity by TPA
